Measurements: patent US11084826B2, “RSV antiviral pyrazolo- and triazolo-pyrimidine compounds” (Janssen Sciences Ireland Unlimited Company, priority 2015, dated 2021)

Test system: rgRSV224 virus
Assay: Antiviral activity: inhibition of rgRSV224 (GFP-expressing RSV) replication in HeLa cells, GFP expression read-out
Type: cell-based, respiratory syncytial virus (RSV)
Conditions: human respiratory syncytial virus, HeLa, read-out: RSV HELA pEC50, rgRSV224 virus (MOI=1) in HeLa cells, GFP read-out (converted)
Protocol: (§1) Black 384-well clear-bottom microtiter plates (Corning, Amsterdam, The Netherlands) were filled via acoustic drop ejection using the echo liquid handler (Labcyte, Sunnyvale, Calif.). 200 nL of compound stock solutions (100% DMSO) were transferred to the assay plates. 9 serial 4-fold dilutions of compound were made, creating per quadrant the same compound concentration. The assay was initiated by adding 10 μL of culture medium to each well (RPMI medium without phenol red, 10% FBS-heat inactivated, 0.04% gentamycin (50 mg/mL). All addition steps are done by using a multidrop dispenser (Thermo Scientific, Erembodegem, Belgium). Next, rgRSV224 virus (MOI=1) diluted in culture medium was added to the plates. rgRSV224 virus is an engineered virus that includes an additional GFP gene (Hallak LK, Spillmann D, Collins PL, Peeples Me. Glycosaminoglycan sulfation requirements for respiratory syncytial virus infection; Journal of virology (2000), 74(22), 10508-13) and was in-licensed from the NIH (Bethesda, Md., USA). Finally, 20 μL of a HeLa cell suspension (3,000 cells/well) were plated. Medium, virus- and mock-infected controls were included in each test. The wells contain 0.05% DMSO per volume. Cells were incubated at 37° C. in a 5% CO2 atmosphere. Three days post-virus exposure, viral replication was quantified by measuring GFP expression in the cells by an in house developed MSM laser microscope (Tibotec, Beerse, Belgium). The EC50 was defined as the 50% inhibitory concentration for GFP expression. In parallel, compounds were incubated for three days in a set of white 384-well microtiter plates (Corning) and the cytotoxicity of compounds in HeLa cells was determined by measuring the ATP content of the cells using the ATPlite kit (Perkin Elmer, Zaventem, Belgium) according to the manufacturer's instructions. The CC50 was defined as the 50% concentration for cytotoxicity.

| SMILES | EC50 |
| --- | --- |
| CCc1cc(C(=O)N2CCCCC[C@H]2C)nc2cc(-c3ccc4ccc(C(=O)O)nc4c3F)nn12 [Compound F45] | 43.7 nM |
| CCc1cc(C(=O)N2CCCCC[C@H]2C)nc2cc(-c3ccc(C4CC5(CC(C(=O)O)C5)C4)cc3F)nn12 (stereo partly drawn) [Compound F47] | 245 nM |
| CCc1cc(C(=O)N2CCCCCC2C)nc2cc(-c3ccc(/C=C(\C)C(=O)O)cc3F)nn12 (stereo not drawn) [Compound M13] | 224 nM |
| CNc1cc(C(=O)N2CCc3ccccc3[C@H]2C)nc2cc(-c3ccc(/C=C/C(=O)O)cc3F)nn12 [Compound M14] | 24 nM |
| CCc1cc(C(=O)N2CCc3ccccc3[C@H]2C)nc2cc(-c3ccc(/C=C/C(=O)O)cc3F)nn12 [Compound M15] | 15.1 nM |
| C[C@@H]1c2ccccc2CCN1C(=O)c1cc(N2CCCC2)n2nc(-c3ccc(/C=C/C(=O)O)cc3F)cc2n1 [Compound M16] | 13.2 nM |
| CCc1cc(C(=O)N2CCc3ccccc3C2C)nc2cc(-c3ccc(/C=C(\C)C(=O)O)cc3F)nn12 (stereo not drawn) [Compound M17] | 63.1 nM |
| CCc1cc(C(=O)N2CCCc3ccccc3C2C)nc2cc(-c3ccc(/C=C/C(=O)O)cc3F)nn12 (stereo not drawn) [Compound M18] | 77.6 nM |
| C[C@@H]1CCCCCN1C(=O)c1cc(C2CC2)n2nc(-c3cccc(/C=C/C(=O)O)c3F)cc2n1 [Compound M28] | 93.3 nM |
| CCc1cc(C(=O)N2CCCCC[C@H]2C)nc2cc(-c3ccc(/C=C/C(=O)O)c(OC)c3F)nn12 [Compound M32] | 178 nM |
| C[C@@H]1CCCCCN1C(=O)c1cc(C2(C)COC2)n2nc(-c3cccc(/C=C/C(=O)O)c3F)cc2n1 [Compound M33] | 102 nM |
| CCc1cc(C(=O)N2CCCCCC2C)nc2cc(-c3ccc(C4CC4C(=O)O)cc3F)nn12 (stereo not drawn) [Compound O1] | 123 nM |
| C[C@@H]1CCCCCN1C(=O)c1cc(C2CC2)n2nc(-c3cccc([C@H]4C[C@@H]4C(=O)O)c3F)cc2n1 [Compound O6] | 148 nM |
| CCc1cc(C(=O)N2CCCCC[C@H]2C)nc2cc(-c3ccc(N4CC(C(=O)O)C4)cc3F)nn12 [Compound W1] | 64.6 nM |
| CCc1cc(C(=O)N2CCCCC[C@H]2C)nc2cc(-c3ccc(N4CCC[C@@H](C(=O)O)C4)cc3F)nn12 [Compound W4] | 105 nM |
| CCc1cc(C(=O)N2CCCCC[C@H]2C)nc2cc(-c3ccc(N4CCC[C@H](C(=O)O)C4)cc3F)nn12 [Compound W5] | 89.1 nM |
| CCc1cc(C(=O)N2CCCCC[C@H]2C)nc2cc(-c3ccc(NC4(C(=O)O)CC4)cc3F)nn12 [Compound W16] | 269 nM |
| CCc1cc(C(=O)N2CCCCC[C@H]2C)nc2cc(-c3ccc(N(C)CC(=O)O)cc3F)nn12 [Compound W19] | 263 nM |
| CCc1cc(C(=O)N2CCCCC[C@H]2C)nc2cc(-c3ccc(N(C)c4cc(C(=O)O)nn4C)cc3F)nn12 [Compound W21] | 1020 nM |
| CCc1cc(C(=O)N2CCCCC[C@H]2C)nc2cc(-c3ccc(-n4cnc(C(=O)O)c4)cc3F)nn12 [Compound W29] | 363 nM |
| C[C@@H]1CCCCCN1C(=O)c1cc(C2(C)CC2)n2nc(-c3ccc(N4CC[C@H](C(=O)O)C4)cc3F)cc2n1 [Compound W30] | 17.4 nM |
| C[C@@H]1CCCCCN1C(=O)c1cc(C2CCC2)n2nc(-c3ccc(N4CC[C@H](C(=O)O)C4)cc3F)cc2n1 [Compound W31] | 12.6 nM |
| C[C@@H]1c2ccsc2CCN1C(=O)c1cc(C2(C)CC2)n2nc(-c3ccc(N4CC[C@H](C(=O)O)C4)cc3F)cc2n1 [Compound W44] | 8.71 nM |
| CCc1cc(C(=O)N2CCCCC[C@H]2C)nc2cc(-c3ccc(-c4cc(=O)[nH]o4)cc3F)nn12 [Compound X1] | 93.3 nM |

Test system: not listed separately
Assay: Cytotoxicity in HeLa cells, ATP content measured with the ATPlite kit
Type: cell-based
Conditions: human, TOX HELA pCC50
Protocol: as §1

| SMILES | CC50 at 3 days |
| --- | --- |
| CCc1cc(C(=O)N2CCCCC[C@H]2C)nc2cc(-c3ccc4ccc(C(=O)O)nc4c3F)nn12 [Compound F45] | 91200 nM |
| CCc1cc(C(=O)N2CCCCC[C@H]2C)nc2cc(-c3ccc(C4CC5(CC(C(=O)O)C5)C4)cc3F)nn12 (stereo partly drawn) [Compound F47] | 46800 nM |
| CCc1cc(C(=O)N2CCCCCC2C)nc2cc(-c3ccc(/C=C(\C)C(=O)O)cc3F)nn12 (stereo not drawn) [Compound M13] | > 25100 nM |
| CNc1cc(C(=O)N2CCc3ccccc3[C@H]2C)nc2cc(-c3ccc(/C=C/C(=O)O)cc3F)nn12 [Compound M14] | 15800 nM |
| CCc1cc(C(=O)N2CCc3ccccc3[C@H]2C)nc2cc(-c3ccc(/C=C/C(=O)O)cc3F)nn12 [Compound M15] | > 20400 nM |
| C[C@@H]1c2ccccc2CCN1C(=O)c1cc(N2CCCC2)n2nc(-c3ccc(/C=C/C(=O)O)cc3F)cc2n1 [Compound M16] | 16600 nM |
| CCc1cc(C(=O)N2CCc3ccccc3C2C)nc2cc(-c3ccc(/C=C(\C)C(=O)O)cc3F)nn12 (stereo not drawn) [Compound M17] | 17400 nM |
| CCc1cc(C(=O)N2CCCc3ccccc3C2C)nc2cc(-c3ccc(/C=C/C(=O)O)cc3F)nn12 (stereo not drawn) [Compound M18] | > 25100 nM |
| C[C@@H]1CCCCCN1C(=O)c1cc(C2CC2)n2nc(-c3cccc(/C=C/C(=O)O)c3F)cc2n1 [Compound M28] | 17800 nM |
| CCc1cc(C(=O)N2CCCCC[C@H]2C)nc2cc(-c3ccc(/C=C/C(=O)O)c(OC)c3F)nn12 [Compound M32] | 66100 nM |
| C[C@@H]1CCCCCN1C(=O)c1cc(C2(C)COC2)n2nc(-c3cccc(/C=C/C(=O)O)c3F)cc2n1 [Compound M33] | > 100000 nM |
| CCc1cc(C(=O)N2CCCCCC2C)nc2cc(-c3ccc(C4CC4C(=O)O)cc3F)nn12 (stereo not drawn) [Compound O1] | > 25100 nM |
| C[C@@H]1CCCCCN1C(=O)c1cc(C2CC2)n2nc(-c3cccc([C@H]4C[C@@H]4C(=O)O)c3F)cc2n1 [Compound O6] | 97700 nM |
| CCc1cc(C(=O)N2CCCCC[C@H]2C)nc2cc(-c3ccc(N4CC(C(=O)O)C4)cc3F)nn12 [Compound W1] | > 25100 nM |
| CCc1cc(C(=O)N2CCCCC[C@H]2C)nc2cc(-c3ccc(N4CCC[C@@H](C(=O)O)C4)cc3F)nn12 [Compound W4] | 89100 nM |
| CCc1cc(C(=O)N2CCCCC[C@H]2C)nc2cc(-c3ccc(N4CCC[C@H](C(=O)O)C4)cc3F)nn12 [Compound W5] | 95500 nM |
| CCc1cc(C(=O)N2CCCCC[C@H]2C)nc2cc(-c3ccc(NC4(C(=O)O)CC4)cc3F)nn12 [Compound W16] | > 100000 nM |
| CCc1cc(C(=O)N2CCCCC[C@H]2C)nc2cc(-c3ccc(N(C)CC(=O)O)cc3F)nn12 [Compound W19] | > 100000 nM |
| CCc1cc(C(=O)N2CCCCC[C@H]2C)nc2cc(-c3ccc(N(C)c4cc(C(=O)O)nn4C)cc3F)nn12 [Compound W21] | 21900 nM |
| CCc1cc(C(=O)N2CCCCC[C@H]2C)nc2cc(-c3ccc(-n4cnc(C(=O)O)c4)cc3F)nn12 [Compound W29] | > 100000 nM |
| C[C@@H]1CCCCCN1C(=O)c1cc(C2(C)CC2)n2nc(-c3ccc(N4CC[C@H](C(=O)O)C4)cc3F)cc2n1 [Compound W30] | 50100 nM |
| C[C@@H]1CCCCCN1C(=O)c1cc(C2CCC2)n2nc(-c3ccc(N4CC[C@H](C(=O)O)C4)cc3F)cc2n1 [Compound W31] | 49000 nM |
| C[C@@H]1c2ccsc2CCN1C(=O)c1cc(C2(C)CC2)n2nc(-c3ccc(N4CC[C@H](C(=O)O)C4)cc3F)cc2n1 [Compound W44] | 49000 nM |
| CCc1cc(C(=O)N2CCCCC[C@H]2C)nc2cc(-c3ccc(-c4cc(=O)[nH]o4)cc3F)nn12 [Compound X1] | > 25100 nM |
